# Residues, ends and D or L forms follow the SMILES beside them.
# Experiments:
# [1] = target: T1, LPL from bovine milk (Bos taurus, UniProt P11151); assay: In vitro LPL activity assay (NEFA generation, ApoC2-deficient plasma substrate); type: biochemical
# T1 construct: LPL from bovine milk (Sigma-Aldrich); purchased Sigma-Aldrich; host or cells: bovine milk (natural source)
# T1 sequence (P11151 29-478): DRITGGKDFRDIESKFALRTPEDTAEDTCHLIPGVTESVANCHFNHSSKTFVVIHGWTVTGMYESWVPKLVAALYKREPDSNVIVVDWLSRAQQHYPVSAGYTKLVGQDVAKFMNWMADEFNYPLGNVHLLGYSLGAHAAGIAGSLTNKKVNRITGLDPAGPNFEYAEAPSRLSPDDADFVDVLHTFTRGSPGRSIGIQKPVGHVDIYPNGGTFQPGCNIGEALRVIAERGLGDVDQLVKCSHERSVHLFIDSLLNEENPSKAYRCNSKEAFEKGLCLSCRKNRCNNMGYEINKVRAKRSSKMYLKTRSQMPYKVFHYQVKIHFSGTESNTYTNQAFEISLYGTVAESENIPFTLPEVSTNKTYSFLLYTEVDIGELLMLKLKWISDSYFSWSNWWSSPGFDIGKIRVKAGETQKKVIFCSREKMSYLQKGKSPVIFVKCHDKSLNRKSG
# Method: (§1) LPL activity was determined by measuring the generation of non-esterified fatty acids (NEFA). In a 96-well plate, 0–2 µM of an ApoC2 mimetic peptide, 0.83 nM of LPL from bovine milk (Sigma-Aldrich), ApoC2-deficient ethylenediaminetetraacetic acid (EDTA)-plasma (diluted with PBS to a final TG concentration of 0.67 mg/dl), 2 IU/ml heparin, 0.2% fatty acids free bovine serum albumin (BSA) (ICN Biomedicals), and PBS (Life Technologies) were combined in a final reaction volume of 50 μl. The reaction mixture was pre-incubated on ice for 30 min and incubated at 37°C for 1 h. NEFA were measured with a coupled enzyme reaction (Wako Diagnostics) in a Synergy H1 microplate reader (BioTek, USA).
# [2] = target: T2, human LPL (Homo sapiens, UniProt P06858); assay: Isothermal titration calorimetry LPL activity assay in pooled human plasma; type: biochemical; settings: normolipidemic pooled human EDTA-plasma nearly undiluted, 1 nM human LPL injections, 25°C, initial rate, on top of endogenous activators, triplicates
# T2 sequence (P06858 28-475): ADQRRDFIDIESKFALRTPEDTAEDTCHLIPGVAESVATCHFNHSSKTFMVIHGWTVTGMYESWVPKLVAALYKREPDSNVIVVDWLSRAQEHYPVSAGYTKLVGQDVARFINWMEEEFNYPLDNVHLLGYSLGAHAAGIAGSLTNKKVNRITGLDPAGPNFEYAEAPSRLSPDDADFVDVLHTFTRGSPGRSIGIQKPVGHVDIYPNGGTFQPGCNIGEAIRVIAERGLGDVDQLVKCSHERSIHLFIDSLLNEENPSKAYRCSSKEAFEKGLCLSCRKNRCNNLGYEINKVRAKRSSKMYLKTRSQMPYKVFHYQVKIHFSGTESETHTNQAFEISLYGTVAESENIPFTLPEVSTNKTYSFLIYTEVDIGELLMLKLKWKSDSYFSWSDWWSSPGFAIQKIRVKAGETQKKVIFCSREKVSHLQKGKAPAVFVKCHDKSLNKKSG
# Method: Isothermal titration calorimetry (ITC) measurements, which depends upon the initial rate of reaction, were performed to assess peptide activation of LPL in nearly undiluted human plasma as previously described ([22], [23]). Peptides in 20 mM TRIS, pH 8.2 at the indicated concentrations were added to a normolipidemic EDTA-plasma pool. The reaction was initiated by three sequential injections of 1 nM human LPL. The heat of the reaction was monitored with the iTC200 calorimeter (GE Healthcare, USA) and the initial reaction rates at 25°C were converted into relative activity units.
# [3] = Circular dichroism spectroscopy; type: physicochemical; settings: CD 190-250 nm, 0.1 cm cell, calculated from spectrum
# Method: Circular dichroism (CD) spectra were acquired on a Chirascan Q100 spectrometer. CD spectra were recorded in the190–250 nm range, using a 0.1 cm quartz cell and analyzed with Bettsele® on-line software ([24]).
# [4] = test system: trypsin; assay: Peptide proteolysis resistance, trypsin; type: in vitro ADME; settings: peptide 0.1 mM, 10 ug/ml trypsin, 20 mM ammonium bicarbonate pH 8.2, 37°C, MALDI-TOF with internal standards, first time point 3 h, triplicates
# Method: (§2) Peptides (0.1 mM) were incubated at 37°C in 20 mM ammonium bicarbonate buffer at pH 8.2, with 10 ug/ml trypsin or […] Proteinase K. To test resistance to Pepsin, peptides (0.1 mM) were incubated with Pepsin (3 mg/ml) in 0.02M acetate buffer (pH 2). The amount of intact peptide was monitored over time by Matrix-assisted laser desorption/ionization time-of-flight (MALDI-TOF) on a Bruker Autoflex III instrument (Bruker Optics, Inc., USA). Internal standards (Bombesin, ACTH (1–17), ACTH (18–39) and Insulin) were used to quantify the relative amount of peptide in each sample.
# [5] = target: Proteinase K (Parengyodontium album, UniProt P06873); type: in vitro ADME; settings: pH 8.2
# Method: as §2
# [6] = test system: Pepsin; assay: Peptide proteolysis resistance, pepsin; type: in vitro ADME; settings: peptide 0.1 mM, pepsin 3 mg/ml, 0.02M acetate buffer pH 2, 1 h, MALDI-TOF with internal standards, triplicates
# Method: as §2
# [7] = target: T1, LPL from bovine milk; assay: In vitro LPL activation assay after pepsin treatment; type: biochemical; settings: 1 h pepsin at pH 2, then pH neutralised; compared with untreated peptide, area-under-the-curve, triplicates
# Method: as §1, §2
# Figure 4 Peptide proteolysis resistance. […]
# [8] = test system: Apoc2^h/h mice; assay: Plasma lipids in ApoC2-hypomorphic mice after peptide injection; type: in vivo, mouse; settings: single IP 1 umole/kg, n = 4
# Method: ApoC2–hypomorphic mice (Apoc2^h/h) ([25]) and human ApoC3-transgenic (hAPOC3-tg) mice ([26]) were fed a regular rodent chow diet (NIH-31 chow diet: Zeigler Brothers Inc.). Peptides dissolved in 20 mM TRIS (pH 8.2) or vehicle control were injected intraperitoneally or intravenously at the indicated concentrations. Blood samples were collected from the retro-orbital sinus with a heparinized capillary tube. Whole blood was centrifuged at 1,000 g for 20 min at 4°C to obtain plasma. All animal procedures were approved by the National Heart, Lung, and Blood Institute Animal Care and Use Committee (protocol #H-0050).
# [9] = test system: Apoc2^h/h mice; settings: ApoC2 hypomorphic mice, single intravenous injection, within a few hours; cited from earlier work
# Source text: (§3) We recently developed a bi-helical ApoC2 mimetic peptide called D6PV that contains 41 amino acids ([16]). ApoC2 mimetic peptides could potentially be used as a treatment for pancreatitis in patients with genetic APOC2 deficiency and for the prevention of cardiovascular disease in patients with moderate elevations in plasma triglycerides ([1]). […] Except for one amino acid substitution, the secon ...
# [10] = test system: hAPOC3-tg mice; settings: ApoC3 transgenic mice; cited from earlier work
# Source text: as §3
# Chain of Proteinase K (P06873 106-384): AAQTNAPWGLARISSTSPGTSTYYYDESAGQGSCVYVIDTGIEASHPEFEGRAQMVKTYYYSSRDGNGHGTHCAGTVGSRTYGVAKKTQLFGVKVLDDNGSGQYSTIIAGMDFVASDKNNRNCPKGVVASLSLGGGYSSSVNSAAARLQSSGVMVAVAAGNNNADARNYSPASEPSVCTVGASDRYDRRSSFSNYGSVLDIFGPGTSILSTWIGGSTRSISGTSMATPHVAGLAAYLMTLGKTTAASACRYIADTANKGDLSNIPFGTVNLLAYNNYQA
structure (smiles),measurement,setting,value
"CC[C@H](C)[C@H](NC(=O)CNC(=O)[C@@H](NC(=O)[C@H](Cc1ccc(O)cc1)NC(=O)[C@@H](NC(=O)[C@H](CO)NC(=O)[C@@H](NC(=O)[C@H](C)NC(=O)[C@@H]1CCCN1C(=O)[C@@H](NC(=O)[C@H](Cc1ccccc1)NC(=O)[C@H](CCCCN)NC(=O)[C@H](CCC(=O)O)NC(=O)[C@H](Cc1ccc(O)cc1)NC(=O)[C@H](CC(C)C)NC(=O)[C@H](CC(=O)O)NC(=O)[C@H](CCCNC(=N)N)NC(=O)[C@H](CC(C)C)NC(=O)[C@H](CCCCN)NC(=O)[C@H](CCC(=O)O)NC(=O)[C@H](Cc1ccccc1)NC(=O)[C@@H](NC(=O)[C@H](CCC(=O)O)NC(=O)[C@H](CCCCN)NC(=O)[C@H](CC(C)C)NC(=O)[C@H](Cc1ccc(O)cc1)NC(=O)[C@@H](N)CC(=O)O)C(C)C)[C@@H](C)O)C(C)C)[C@@H](C)O)[C@@H](C)O)C(=O)N[C@@H](Cc1ccccc1)C(=O)N[C@H](C(=O)N[C@@H](CC(=O)O)C(=O)N[C@@H](CCC(N)=O)C(=O)N[C@H](C(=O)N[C@@H](CC(C)C)C(=O)N[C@@H](CO)C(=O)N[C@H](C(=O)N[C@@H](CC(C)C)C(=O)N[C@@H](CCCCN)C(=O)NCC(=O)N[C@@H](CCC(=O)O)C(=O)N[C@@H](CCC(=O)O)C(=O)O)C(C)C)C(C)C)[C@@H](C)O [D6PV, reference compound] (H-DYLKEVFEKLRDLYEKFTPAVSTYTGIFTDQVLSVLKGEE-OH; N-terminus assumed)",EC50,[1],107 nM
same,LPL activity by isothermal titration calorimetry,[2],doubled the activity of LPL
same,alpha-helical secondary structure by CD,[3],42%
same,intact full-length peptide after trypsin incubation,[4],essentially no intact peptide was detected
same,intact full-length peptide after Proteinase K incubation,[5],essentially no intact peptide was detected
same,intact full-length peptide after pepsin incubation,[6],No intact peptide was observed
same,ability to activate LPL after pepsin treatment,[7],almost completely inactive
same,reduction in plasma triglycerides,[8]; 3 h after injection,> 90%
same,plasma cholesterol,[8],lowered plasma cholesterol
same,plasma TG,[9],markedly lowered TG
same,plasma TG,[10],lowered TG

# Source: paper PMC10403075, “Short hydrocarbon stapled ApoC2-mimetic peptides activate lipoprotein lipase and lower plasma triglycerides in mice” (Frontiers in Cardiovascular Medicine, 2023)
